Test results published in paper PMC4891189 (Pharmaceutical research, 2015).
“Also recorded” adds a separate entry of the source.

Legend:
human jejunum = settings: single-pass perfusion, healthy volunteers ref 9; cited from earlier work
[1] = oral administration, after first-pass metabolism; cited from earlier work
P-gp [2] = settings: mdr1a (−/−) mice intestine ref 29; cited from earlier work
[3] = tested on: MDCK-MDR1 cell monolayers; assay: Bidirectional transport across MDCK-MDR1 cell monolayers; assay type: in vitro ADME, canine
P-gp (MDR1) = assay: as above; assay type: in vitro ADME, canine; settings: dog
[4] = PAMPA permeability at different pH
P-gp [5] = assay: Bidirectional transport across Caco-2 cell monolayers; settings: human
[6] = cited from earlier work
hemodynamic effects = settings: healthy subjects ref 8; cited from earlier work
rat jejunum [7] = tested on: rat jejunum
beta-blocking activity = settings: animal studies ref 7; cited from earlier work
Caco-2 cell monolayers = assay: Bidirectional transport across Caco-2 cell monolayers; settings: 50 µM
rat jejunum [8] = assay: Transport study in rat jejunum Ussing chamber; settings: after 90 min, leakage indicator
[9] = MDCK-MDR1, pH 7.4, with GG918 0.5 µM
[10] = Caco-2, pH 7.4, with GG918 0.5 µM
[11] = 50 µM, MDCK-MDR1, pH 7.4, GG918 0.5 µM

## CC(C)NCC(O)COc1cccc2ccccc12 (centres unmarked) [propranolol]
Human jejunum
  effective permeability: 280 ×10⁻⁶ cm/s
[1]
  dose reaching the systemic circulation unchanged: 25%
P-gp [2]
  permeability, P-gp expressed vs knocked out: not influenced

## C[C@H]1O[C@@H](O[C@H]2[C@@H](O)C[C@H](O[C@H]3[C@@H](O)C[C@H](O[C@H]4CC[C@@]5(C)[C@H](CC[C@@H]6[C@@H]5C[C@@H](O)[C@]5(C)[C@@H](C7=CC(=O)OC7)CC[C@]65O)C4)O[C@@H]3C)O[C@@H]2C)C[C@H](O)[C@@H]1O [Digoxin, digoxin]
[3]; Digoxin 0.01 µM, MDR1-MDCK cells, +GG918 0.5 µM
  Efflux Ratio: 1.52±0.16
P-gp (MDR1); MDCK-MDR1, pH 7.4
  Papp A→B at 120 min, 0.01 µM: 0.26 ± 0.02 ×10⁻⁶ cm/s
  Papp B→A at 120 min, 0.01 µM: 2 ± 0.01 ×10⁻⁶ cm/s
P-gp (MDR1); [9]
  Papp A→B at 120 min, 0.01 µM: 0.41 ± 0.1 ×10⁻⁶ cm/s
  Papp B→A at 120 min, 0.01 µM: 0.67 ± 0.06 ×10⁻⁶ cm/s
P-gp (MDR1); MDCK-MDR1, pH 7.4, with GG918 0.5 µM, Efflux Ratio, Digoxin 0.01 µM, MDR1-MDCK cells, +GG918 0.5 µM
  efflux ratio at 120 min, 0.01 µM: < 2
[4]; 5 µM digoxin
  effect of apical pH on permeability: no statistical differences; also recorded: did not show different permeability results
P-gp [5]; Caco-2, pH 7.4
  Papp A→B at 120 min, 0.01 µM: 0.64 ± 0.03 ×10⁻⁶ cm/s
  Papp B→A at 120 min, 0.01 µM: 1.64 ± 0.13 ×10⁻⁶ cm/s
  efflux ratio at 120 min, 0.01 µM: 2.57 ± 0.33
P-gp [5]; [10]
  Papp A→B at 120 min, 0.01 µM: 1.17 ± 0.07 ×10⁻⁶ cm/s
  Papp B→A at 120 min, 0.01 µM: 1.19 ± 0.05 ×10⁻⁶ cm/s
  efflux ratio at 120 min, 0.01 µM: < 2

## CC(C)NCC(O)COc1cccc2ccccc12.Cl (centres unmarked) [propranolol HCl]
[6]
  dose number: 0.006

## CC(C)NC[C@@H](O)COc1cccc2ccccc12 [R-propranolol]
Hemodynamic effects
  hemodynamic effects: ineffective

## CC(C)NCC(O)COc1cccc2ccccc12 (centres unmarked) [S-propranolol]
[3]; 25 nM, MDCK-MDR1, pH 7.4 on both sides
  effect of GG918 on basolateral and apical permeabilities: no effect of GG918 was observed
[3]; 50 µM, MDCK-MDR1, apical pH 6.5
  Papp, A->B in the presence of GG918: decreased significantly
[3]; [11]
  Papp, A→B in the absence or presence of GG918: unexplained significant difference
  basolateral to apical efflux in the absence or presence of GG918: no significant differences
Rat jejunum [7]; not told
  effect of verapamil on Papp in the absorptive direction: did not alter
Rat jejunum [7]; pH 6.5
  change of Papp mucosal to serosal (absorption) with mucosal pH: statistically significant decrease
  effect of mucosal pH on serosal to mucosal permeability (secretion): didn’t significantly affect
beta-blocking activity
  beta-blocking activity, times more potent than R-propranolol: 100 times
[4]; 25 nM
  mass retention: 58±4%
[4]; 50 µM
  mass retention: 12%±1
[4]; 50 µM each, pH 7.4 both sides
  permeability compared with high permeability standard labetalol: higher permeability than 50 µM labetalol
[4]; 50 µM, apical pH 6.5, basolateral pH 7.4
  simulated efflux ratio (Papp, B->A/ Papp, A->B): 3.39
[4]; 50 µM, apical pH 7.4, basolateral pH 7.4
  simulated efflux ratio (Papp, B->A/ Papp, A->B): 1
[4]; 50 µM, pH 6.5→pH 7.4
  Papp, A->B: 8.1±0.3 × 10^−6 cm/sec
[4]; 50 µM, pH 7.4→pH 6.5
  simulated Papp, B->A: 27.3±0.4 × 10^−6 cm/sec
[4]; 50 µM, pH 7.4→pH 7.4
  Papp: 19.2±2.6 × 10^−6 cm/sec
[4]; 100 µM
  mass retention: 8%±1
  pH dependent transcellular permeability at 100 µM compared with 50 µM: almost identical to that observed at 50 µM
Caco-2 cell monolayers; Caco-2
  change of Papp, A->B as apical pH changed from 7.4 to 6.5: markedly decreased
  change of Papp, B->A as apical pH changed from 7.4 to 6.5: significantly increased
Caco-2 cell monolayers; Caco-2, apical pH 6.5
  Papp, A->B in the presence of GG918: small but significant increase
  basolateral to apical efflux in the presence or absence of GG918: no significant differences

## O=S1(=O)OC(c2ccc(O)cc2)(c2ccc(O)cc2)c2ccccc21 [phenol red]
Rat jejunum [8]
  permeated from the mucosal to serosal side: less than 1%
